Measured values from patent US20250304578A1, “NITROGEN-CONTAINING FUSED HETEROCYCLIC COMPOUNDS OF N-SULFONAMIDE AND USE THEREOF” (NUTSHELL THERAPEUTICS (SHANGHAI) CO., LTD., priority 2023, published 2025).
Like-named read-outs stand apart in the source and are kept apart here. Values belong to the compound of their own block, whether it stands above or below them.

How the values were obtained:
NUGC-3 cells = assay: Anti-proliferation effect on NUGC-3 cells (Cell Counting Kit-8); type: cell-based; details: Homo sapiens, NUGC-3, 120 h; 5 days of treatment
Method: Cell line NUGC-3 (JCRB, JCRB0822) was cultured in RPMI 1640 (Invitrogen, 11875-085) medium supplemented with 10% (v/v) fetal bovine serum (BI, 04-002-1A), according to the standard instructions of the American Type Culture Collection. The cell line was authenticated by short tandem repeat profiling.
In the proliferation assay, 1000 NUGC-3 cells were seeded in a 96-well flat clear bottom, TC-treated plate (Corning, 3903) in 200 μL of medium per well, and allowed to recover overnight in culture medium. Compounds were added with increasing concentration, with DMSO treatment serving as a […] control. After 5 days of treatment, the plate was equilibrated to room temperature for 30 minutes, and the number of living cells was measured by the addition of the Cell Counting Kit-8 reagent (MCE, HY-K0301). Absorbance was measured on an Enspire (Perkin elme). The relative viability of each group was presented as the percentage change relative to the […] control group and then fit to a four-parameter logit non-linear curve using the program XLFit (IDBS)

CYP3A4/5 = assay: Multi-concentration inhibitory activity curve of CYP3A4/5 enzymes; type: in vitro ADME; details: pH 7.4, probe testosterone; human liver microsomes; substrate testosterone; read-out: CYP3A4/5 IC50 (μM) (Testosterone)
Method: The buffer was filtered through a 0.45 μm filter.
Liver microsome working solution (final system concentration of 0.5 mg/mL) was prepared. […] The above stock solution was diluted with acetonitrile (4-fold dilution, 6 non-zero concentrations).
The half-maximal inhibitory concentration (IC50) was calculated using Graph Pad Prism.

[1] = Metabolic stability test in hepatocytes; type: in vitro ADME; details: for hepatocyte CLint at 1 μM: read-out: In vitro Clint (μL/min/10^6 cells); for half-life at 1 μM: read-out: In vitro t1/2
Method: The test compound and the control drug verapamil powder were prepared into a high concentration stock solution using DMSO, and diluted to a 100 μM working solution with 50% acetonitrile/water before use, with final concentrations of 1 μM for the test compound and verapamil.
• 1) 49.5 mL of Williams' Medium E and 0.5 mL GlutaMAX were mixed as the incubation solution. The hepatocyte recovery solution and the incubation solution were pre-warmed in a 37° C. water bath for at least 15 minutes prior to use. • 2) A tube of cryopreserved hepatocytes was taken, ensuring that the hepatocytes were still in a cryogenic frozen state prior to resuscitation. The hepatocytes were quickly placed in a 37° C. water bath and gently shaken until all ice crystals were completely dispersed, sprayed with 70% ethanol and transferred to a biosafety cabinet. • 3) The contents of the hepatocyte tube were poured into a centrifuge tube containing 50 mL of recovery medium, which were centrifuged at 100 g for 10 minutes. After centrifugation, the recovery medium was aspirated, and sufficient incubation medium was added to obtain a cell suspension having a cell density of approximately 1.5×10^6 cells/mL. • 4) Cellometer Vision was used to count hepatocytes and determine the density of viable cells. The survival rate of hepatocytes must be greater than 75%. The hepatocyte suspension was diluted with incubation medium to a viable cell density of 0.5×10^6 cells/mL. • 5) A portion of hepatocyte suspension with a density of 0.5×10^6 cells/mL was boiled in water for 5 minutes to inactivate as a negative control. After cells were inactivated, substrate conversion mediated by non-cellular enzymes could be easily investigated.
• 1) 198 μL of the suspension of live or inactivated cells was transferred to a 96-well deep-well plate, which was then placed on a vortexer and preheated in an incubator for 10 minutes. Live cells were incubated in duplicate, while inactivated cells were incubated in single. • 2) 2 μL of 100 μM test compound or verapamil was added to each well for the reaction initiation, and the deep-well plate was placed back on the incubator vortexer. • 3) 25 μL of the suspension were taken from the incubated samples at 0, 15, 30, 60, 90, and 120 minutes, respectively, and added to 150 μL of acetonitrile containing internal standards (200 nM alprazolam, 200 nM labetalol, 2 μM ketoprofen, and 200 nM caffeine) to terminate the reaction. The mixture was vortexed for 10 minutes and centrifuged at 3220 g and 4° C. for 30 minutes. After centrifugation was completed, 100 μL of the supernatant and 100 μL of ultra-pure water were mixed well for UPLC-MS/MS analysis detection.
All data calculations were performed using Microsoft Excel software. Peak areas were detected by extracting the ion chromatogram. The in vitro half-life (t1/2) of the parent drug was detected by linear fitting of the natural logarithm of the percentage of parent drug […] with time.
The in vitro half-life (t1/2) was calculated by the slope: […]
In vitro intrinsic clearance (unit μL/min/10^6 cells) was calculated using the following formula:
[formula] • V=incubation volume per well (0.2 mL); • N=number of cells per well (0.1×10^6 cells)

[2] = Metabolic stability in liver microsomes; type: in vitro ADME; details: for microsomal CLint at 1 μM: read-out: In vitro Clint (μL/min/mg protein); for half-life at 1 μM: read-out: In vitro t1/2
Method: The test compound and the positive control compound (dextromethorphan as a control compound) were dissolved respectively in DMSO to prepare a stock solution with a concentration of 10 mM, and the above stock solution was diluted into 200 μM working solution with DMSO. 8.709 g of potassium hydrogen phosphate (K2HPO4) was dissolved in 950 mL of water, and the pH value of the solution was adjusted to 7.4 with hydrochloric acid, and then the volume was adjusted to 1000 mL with water. After filtration using a 0.22 μm filter membrane, the mixture was stored in a 4° C. refrigerator for later use. After liver microsomes of various species (protein concentration of 20 mg/mL) were thawed in a 37° C. water bath, the liver microsomes were diluted with a phosphate buffer respectively to obtain a liver microsome working solution with protein concentration of 0.629 mg/mL. 5 mM NADPH solution was prepared using the above phosphate buffer for later use. 1 mg/mL stock solution of terfenadine/tolbutamide was prepared with DMSO and then diluted with a 50% methanol/50% acetonitrile mixed solution to a reaction stop solution containing 5/10 ng/mL (terfenadine/tolbutamide) internal standard.
238.5 μL of liver microsome working solutions of various species were added to a 1.1 mL microtube, and 1.5 μL of the test compound working solution or the positive control compound (dextromethorphan) working solution (200 μM) was added respectively, mixed well, and pre-incubated in a 37° C. water bath for 5 minutes. 60 μL of NADPH solution was added to start the reaction, and after mixing well, at the time points of 0, 5, 15, 30, and 60 minutes after the reaction, 30 μL of the reaction mixture was respectively pipetted and added to 300 μL of the reaction stop solution. Samples from all time points were vortexed vigorously for 1 minute and centrifuged at 4000 rpm for 15 minutes at 4° C. 100 μL of the supernatant was added to 100 μL of pure water and mixed well for LC-MS/MS analysis.
The slope (ke) was determined by plotting the natural logarithm of the percentage of compound remaining against time, and the Tin and intrinsic clearance (CLint) were calculated based on the first-order kinetic formula: […]
The compound remaining rate is calculated as follows:
Intrinsic clearance CLint (μL/min/mg protein)=0.693*1000/T1/2/protein concentration (0.5 mg protein/mL)

[3] = cryopreserved hepatocytes, Human hepatocytes
[4] = cryopreserved hepatocytes, Mouse hepatocytes
[5] = cryopreserved hepatocytes, Rat hepatocytes
[6] = ICR/CD-1, pH 7.4, Mouse liver microsomes
[7] = Sprague Dawley, pH 7.4, Rat liver microsomes
[8] = cryopreserved hepatocytes in suspension, Human hepatocytes
[9] = cryopreserved hepatocytes in suspension, Mouse hepatocytes
[10] = cryopreserved hepatocytes in suspension, Rat hepatocytes

SMILES: [2H]C([2H])([2H])Oc1nc(C(=O)NS(=O)(=O)C2CC2)ccc1NCC#Cc1cc2c(N[C@@H]3CCN(C)C[C@@H]3F)cccn2c1CC(F)(F)F [Cpd-4, N-(Cyclopropylsulfonyl)-5-((3-(8-(((3S,4R)-3-fluoro-1-methylpiperidin-4-yl)amino)-3-(2,2,2-trifluoroethyl)indolizin-2-yl)prop-2-yn-1-yl)amino)-6-(methoxy-d3)picolinamide]
IC50 (NUGC-3 cells): 0.097 µM

SMILES: [2H]C([2H])([2H])Oc1nc(C(=O)NS(=O)(=O)CC2CC2)ccc1NCC#Cc1cc2c(N[C@@H]3CCN(C)C[C@@H]3F)cccn2c1CC(F)(F)F [Cpd-5, N-((Cyclopropylmethyl)sulfonyl)-5-((3-(8-(((3S,4R)-3-fluoro-1-methylpiperidin-4-yl)amino)-3-(2,2,2-trifluoroethyl)indolizin-2-yl)prop-2-yn-1-yl)amino)-6-(methoxy-d3)picolinamide]
IC50 (NUGC-3 cells): 0.081 µM

SMILES: [2H]C([2H])([2H])Oc1nc(C(=O)NS(=O)(=O)CC(F)(F)F)ccc1NCC#Cc1cc2c(N[C@@H]3CCN(C)C[C@@H]3F)cccn2c1CC(F)(F)F [Cpd-6, 5-((3-(8-(((3S,4R)-3-Fluoro-1-methylpiperidin-4-yl)amino)-3-(2,2,2-trifluoroethyl)indolizin-2-yl)prop-2-yn-1-yl)amino)-6-(methoxy-d3)-N-((2,2,2-trifluoroethyl)sulfonyl)picolinamide]
IC50 (NUGC-3 cells): 0.19 µM

SMILES: COc1nc(C(=O)NS(=O)(=O)C2CC2)ccc1NCC#Cc1cc2c(N[C@@H]3CCN(C)C[C@@H]3F)cccn2c1CC(F)(F)F [Cpd-7, N-(Cyclopropylsulfonyl)-5-((3-(8-(((3S,4R)-3-fluoro-1-methylpiperidin-4-yl)amino)-3-(2,2,2-trifluoroethyl)indolizin-2-yl)prop-2-yn-1-yl)amino)-6-methoxypicolinamide]
IC50 (NUGC-3 cells): 0.07 µM

SMILES: [2H]C([2H])([2H])Oc1nc(C(=O)NS(C)(=O)=O)ccc1NCC#Cc1cc2c(N[C@H]3CCN(C)C[C@H]3F)cccn2c1CC(F)(F)F [Cpd-8, 5-((3-(8-(((3R,4S)-3-Fluoro-1-methylpiperidin-4-yl)amino)-3-(2,2,2-trifluoroethyl)indolizin-2-yl)prop-2-yn-1-yl)amino)-6-(methoxy-d3)-N-(methylsulfonyl)picolinamide]
IC50 (NUGC-3 cells): 0.34 µM

SMILES: [2H]C([2H])([2H])Oc1nc(C(=O)NS(C)(=O)=O)ccc1NCC#Cc1cc2c(N[C@H]3CCN(C)C[C@@H]3F)cccn2c1CC(F)(F)F [Cpd-9, 5-((3-(8-(((3S,4S)-3-Fluoro-1-methylpiperidin-4-yl)amino)-3-(2,2,2-trifluoroethyl)indolizin-2-yl)prop-2-yn-1-yl)amino)-6-(methoxy-d3)-N-(methylsulfonyl)picolinamide]
IC50 (NUGC-3 cells): 0.55 µM

SMILES: [2H]C([2H])([2H])Oc1nc(C(=O)NS(C)(=O)=O)ccc1NCC#Cc1cc2c(N[C@@H]3CCN(C)C[C@H]3F)cccn2c1CC(F)(F)F [Cpd-10, 5-((3-(8-(((3R,4R)-3-Fluoro-1-methylpiperidin-4-yl)amino)-3-(2,2,2-trifluoroethyl)indolizin-2-yl)prop-2-yn-1-yl)amino)-6-(methoxy-d3)-N-(methylsulfonyl)picolinamide]
IC50 (NUGC-3 cells): 0.9 µM

IC50 at 10 min (CYP3A4/5): 3.2 µM | hepatocyte CLint at 1 μM [1, 3]: 16.8 µL/min/1e6 cells | half-life at 1 μM [1, 3]: 82 min | hepatocyte CLint at 1 μM [1, 4]: 198 µL/min/1e6 cells | half-life at 1 μM [1, 4]: 7 min | hepatocyte CLint at 1 μM [1, 5]: 63.8 µL/min/1e6 cells | half-life at 1 μM [1, 5]: 22 min
SMILES: COc1cc(S(C)(=O)=O)ccc1NCC#Cc1nc2c(N[C@@H]3CCN(C)C[C@@H]3F)cccn2c1CC(F)(F)F [Cpd-B, reference compound]

microsomal CLint at 1 μM [2, 6]: 83.9 µL/min/mg | half-life at 1 μM [2, 6]: 17 min | microsomal CLint at 1 μM [2, 7]: 61.5 µL/min/mg | half-life at 1 μM [2, 7]: 23 min | microsomal CLint at 1 μM ([2]; pH 7.4, Human liver microsomes): 28.3 µL/min/mg | half-life at 1 μM ([2]; pH 7.4, Human liver microsomes): 49 min | hepatocyte CLint at 1 μM [1, 8]: 18.4 µL/min/1e6 cells | half-life at 1 μM [1, 8]: 75 min | hepatocyte CLint at 1 μM [1, 9]: 31.8 µL/min/1e6 cells | half-life at 1 μM [1, 9]: 44 min | hepatocyte CLint at 1 μM [1, 10]: 15.7 µL/min/1e6 cells | half-life at 1 μM [1, 10]: 88 min
SMILES: CNC(=O)c1ccc(NCC#Cc2cc3c(N[C@@H]4CCN(C)C[C@@H]4F)cccn3c2CC(F)(F)F)c(OC)c1 [Cpd-C, 4-((3-(8-(((3S,4R)-3-Fluoro-1-methylpiperidin-4-yl)amino)-3-(2,2,2-trifluoroethyl)indolizin-2-yl)prop-2-yn-1-yl)amino)-3-methoxy-N-methylbenzamide, reference compound]
